Assay results reported in US20060069132A1, “Azolecarboxamide herbicides” (priority 2004, published 2006).

How the values were obtained:
barnyardgrass [1] = assay: Test C flooded paddy test; type: in vivo, Echinochloa crus-galli
How it was run: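 Postemergence sprays applied to plants 2 to 18 cm tall (1- to 4-leaf stage); paddy species grown to 2-leaf stage under flooding. After 12 to 14 days in greenhouse, visual rating versus untreated controls on 0–100 scale (0 no effect, 100 complete control).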

[2] = test system: small flower umbrella sedge; assay: Test B flooded paddy test; type: in vivo, Cyperus difformis; conditions: 1000 g ai/ha, visual rating, scale 0 to 100 (0 no effect, 100 complete control), 13 to 15 days
How it was run: (§1)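 Postemergence plants were sprayed with formulated test chemicals at 2 to 18 cm height (1- to 4-leaf stage); paddy species were grown to the 2-leaf stage. After 13 to 15 days in a greenhouse, injury was rated visually against untreated controls on a 0–100 scale (0 = no effect, 100 = complete control).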

large crabgrass = assay: Test B pre-/postemergence herbicide test; type: in vivo, Digitaria sanguinalis; conditions: for Crabgrass, Large plant response rating: postemergence, visual rating, scale 0 (no effect) to 100 (complete control)
How it was run: (§2)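 Pre: seeds sown, then sprayed. Post: 1–4-leaf plants (2–18 cm) sprayed at the same time. Paddy: flooded, treated at 2-leaf stage. Formulation: non-phytotoxic solvent with surfactant. Greenhouse 13–15 days; visual 0–100 score relative to controls.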

Surinam grass = assay: Test B pre-/postemergence herbicide test; type: in vivo, Urochloa decumbens; conditions: for Surinam Grass plant response rating: postemergence, visual rating, scale 0 (no effect) to 100 (complete control)
How it was run: as §2

rice [3] = assay: Test C flooded paddy test; type: in vivo, Oryza sativa
How it was run: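 Plants were grown to the 1- to 4-leaf stage (2–18 cm) and then treated postemergence, or grown to the 2-leaf stage for the flooded paddy test. They were held in a greenhouse for 12 to 14 days and then scored by eye against controls, where 0 is no effect and 100 is complete control.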

[4] = test system: smallflower umbrella sedge; assay: Test C flooded paddy test; type: in vivo, Cyperus difformis
blackgrass = assay: Test B postemergence herbicide test; type: in vivo, Alopecurus myosuroides; conditions: postemergence, visual rating, scale 0 (no effect) to 100 (complete control)
How it was run: as §1

corn = assay: Test B pre-/postemergence herbicide test; type: in vivo, Zea mays; conditions: for Corn plant response rating: postemergence, visual rating, scale 0 (no effect) to 100 (complete control)
How it was run: as §2

lambsquarters = assay: Test B pre-/postemergence herbicide test; type: in vivo, Chenopodium album; conditions: for Lambsquarters plant response rating: postemergence, visual rating, scale 0 (no effect) to 100 (complete control)
How it was run: as §2

rice [5] = assay: Test B pre-/postemergence herbicide test; type: in vivo, Oryza sativa; conditions: preemergence
How it was run: as §2

pigweed = assay: Test B pre-/postemergence herbicide test; type: in vivo, Amaranthus retroflexus; conditions: for Pigweed plant response rating: postemergence, visual rating, scale 0 (no effect) to 100 (complete control)
How it was run: as §2

giant foxtail = assay: Test B pre-/postemergence herbicide test; type: in vivo, Setaria faberi; conditions: for Foxtail, Giant plant response rating: postemergence, visual rating, scale 0 (no effect) to 100 (complete control)
How it was run: as §2

barnyardgrass [6] = assay: Test B pre-/postemergence herbicide test; type: in vivo, Echinochloa crus-galli; conditions: for Barnyardgrass plant response rating: postemergence, visual rating, scale 0 (no effect) to 100 (complete control)
How it was run: (§3)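 Seeds were planted and treated preemergence with compounds formulated in a non-phytotoxic solvent mixture containing surfactant, while plants at the 1- to 4-leaf stage (2 to 18 cm) received postemergence sprays. Flooded paddy plants were grown to the 2-leaf stage. After 13 to 15 days in a greenhouse, injury was visually rated 0–100 against untreated controls.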

morningglory = assay: Test B pre-/postemergence herbicide test; type: in vivo, Ipomoea coccinea; conditions: for Morningglory plant response rating: postemergence, visual rating, scale 0 (no effect) to 100 (complete control)
How it was run: as §3

rice [7] = assay: Test B flooded paddy test; type: in vivo, Oryza sativa; conditions: 1000 g ai/ha, visual rating, scale 0 to 100 (0 no effect, 100 complete control), 13 to 15 days
How it was run: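 Plants grow to 1- to 4-leaf stage (2–18 cm) for postemergence spraying, or to 2-leaf stage for the paddy test. Formulated compound is applied. Greenhouse holding lasts 13–15 days. Response is scored visually relative to controls, 0 no effect to 100 complete control; a dash means no result.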

velvetleaf = assay: Test B pre-/postemergence herbicide test; type: in vivo, Abutilon theophrasti; conditions: for Velvetleaf plant response rating: postemergence, visual rating, scale 0 (no effect) to 100 (complete control)
How it was run: as §2

wheat = assay: Test B postemergence herbicide test; type: in vivo, Triticum aestivum; parameters: key to Wheat plant response rating: 0 = no effect, 100 = complete control; conditions: postemergence, visual rating, scale 0 (no effect) to 100 (complete control)
How it was run: as §1

wild oat = assay: Test B postemergence herbicide test; type: in vivo, Avena fatua; conditions: postemergence, visual rating, scale 0 (no effect) to 100 (complete control)
How it was run: as §1

barnyardgrass [8] = assay: Test B flooded paddy test; type: in vivo, Echinochloa crus-galli; conditions: 1000 g ai/ha, visual rating, scale 0 to 100 (0 no effect, 100 complete control), 13 to 15 days
How it was run: as §1

cocklebur = assay: Test B pre-/postemergence herbicide test; type: in vivo, Xanthium strumarium; conditions: for Cocklebur plant response rating: postemergence, visual rating, scale 0 (no effect) to 100 (complete control)
How it was run: as §3

ducksalad [9] = assay: Test B flooded paddy test; type: in vivo, Heteranthera limosa; conditions: 1000 g ai/ha, visual rating, scale 0 to 100 (0 no effect, 100 complete control), 13 to 15 days
How it was run: as §1

ducksalad [10] = assay: Test C flooded paddy test; type: in vivo, Heteranthera limosa
[11] = 62 g ai/ha, scale 0 to 100 (0 no effect, 100 complete control)
[12] = 250 g ai/ha, scale of 0 to 100, 0 is no effect, 100 is complete control
[13] = 500 g ai/ha, visual rating after 12 to 14 days, scale 0 to 100 (0 no effect, 100 complete control)
[14] = 125 g ai/ha, 0 = no effect, 100 = complete control, preemergence
[15] = 500 g ai/ha, visual rating 0-100, 0 no effect, 100 complete control, preemergence
[16] = 125 g ai/ha, scale 0 to 100 (0 no effect, 100 complete control)

CCc1nn(C(C)(C)C)cc1C(=O)Nc1cccc(C(C)=O)c1 [Compound 187]
Barnyardgrass plant response rating (barnyardgrass [1]; [11]): 0
Barnyardgrass plant response rating (barnyardgrass [1]; 125 g ai/ha, scale of 0 to 100, 0 is no effect, 100 is complete control): 25
Barnyardgrass plant response rating (barnyardgrass [1]; [12]): 60
Plant response rating, Barnyardgrass (barnyardgrass [1]; [13]): 75
Sedge, Umbrella plant response rating [2]: 80
Crabgrass, Large plant response rating (0 to 100 scale) (large crabgrass; [14]): 70
Plant response rating, Crabgrass, Large (large crabgrass; [15]): 100
Crabgrass, Large plant response rating (large crabgrass; 125 g ai/ha): 10
Crabgrass, Large plant response rating (large crabgrass; 500 g ai/ha): 10
Surinam Grass plant response rating (0 to 100 scale) (Surinam grass; [14]): 30
Plant response rating, Surinam Grass (Surinam grass; [15]): 70
Surinam Grass plant response rating (Surinam grass; 125 g ai/ha): 10
Surinam Grass plant response rating (Surinam grass; 500 g ai/ha): 10
Rice plant response rating (rice [3]; [11]): 15
Rice plant response rating (rice [3]; [16]): 30
Rice plant response rating (rice [3]; [12]): 50
Plant response rating, Rice (rice [3]; [13]): 65
Sedge, Umbrella plant response rating [4, 11]: 20
Sedge, Umbrella plant response rating [4, 16]: 65
Sedge, Umbrella plant response rating [4, 12]: 80
Plant response rating, Sedge, Umbrella [4, 13]: 85
Blackgrass plant response rating (blackgrass; 125 g ai/ha): 0
Blackgrass plant response rating (blackgrass; 500 g ai/ha): 0
Corn plant response rating (0 to 100 scale) (corn; [14]): 20
Plant response rating, Corn (corn; [15]): 60
Corn plant response rating (corn; 125 g ai/ha): 0
Corn plant response rating (corn; 500 g ai/ha): 20
Lambsquarters plant response rating (0 to 100 scale) (lambsquarters; [14]): 20
Plant response rating, Lambsquarters (lambsquarters; [15]): 40
Lambsquarters plant response rating (lambsquarters; 125 g ai/ha): 0
Lambsquarters plant response rating (lambsquarters; 500 g ai/ha): 0
Rice plant response rating (0 to 100 scale) (rice [5]; 125 g ai/ha, 0 = no effect, 100 = complete control): 30
Plant response rating, Rice (rice [5]; 500 g ai/ha, visual rating 0-100, 0 no effect, 100 complete control): 80
Pigweed plant response rating (0 to 100 scale) (pigweed; [14]): 20
Plant response rating, Pigweed (pigweed; [15]): 60
Pigweed plant response rating (pigweed; 125 g ai/ha): 20
Pigweed plant response rating (pigweed; 500 g ai/ha): 20
Foxtail, Giant plant response rating (0 to 100 scale) (giant foxtail; [14]): 10
Plant response rating, Foxtail, Giant (giant foxtail; [15]): 70
Foxtail, Giant plant response rating (giant foxtail; 125 g ai/ha): 10
Foxtail, Giant plant response rating (giant foxtail; 500 g ai/ha): 10
Barnyardgrass plant response rating (0 to 100 scale) (barnyardgrass [6]; [14]): 70
Plant response rating, Barnyardgrass (barnyardgrass [6]; [15]): 90
Barnyardgrass plant response rating (barnyardgrass [6]; 125 g ai/ha): 10
Barnyardgrass plant response rating (barnyardgrass [6]; 500 g ai/ha): 10
Morningglory plant response rating (0 to 100 scale) (morningglory; [14]): 20
Plant response rating, Morningglory (morningglory; [15]): 30
Morningglory plant response rating (morningglory; 125 g ai/ha): 20
Morningglory plant response rating (morningglory; 500 g ai/ha): 20
Rice plant response rating (rice [7]): 30
Velvetleaf plant response rating (0 to 100 scale) (velvetleaf; [14]): 10
Plant response rating, Velvetleaf (velvetleaf; [15]): 20
Velvetleaf plant response rating (velvetleaf; 125 g ai/ha): 0
Velvetleaf plant response rating (velvetleaf; 500 g ai/ha): 10
Wheat plant response rating (wheat; 125 g ai/ha): 0
Wheat plant response rating (wheat; 500 g ai/ha): 0
Oat, Wild plant response rating (wild oat; 125 g ai/ha): 10
Oat, Wild plant response rating (wild oat; 500 g ai/ha): 20
Barnyardgrass plant response rating (barnyardgrass [8]): 60
Cocklebur plant response rating (0 to 100 scale) (cocklebur; [14]): 0
Plant response rating, Cocklebur (cocklebur; [15]): 0
Cocklebur plant response rating (cocklebur; 125 g ai/ha): 30
Cocklebur plant response rating (cocklebur; 500 g ai/ha): 70
Ducksalad plant response rating (ducksalad [9]): 90
Ducksalad plant response rating (ducksalad [10]; [11]): 20
Ducksalad plant response rating (ducksalad [10]; [16]): 40
Ducksalad plant response rating (ducksalad [10]; [12]): 85
Plant response rating, Ducksalad (ducksalad [10]; [13]): 90
